Values of other authors in patent US7122195B2, “Mutant mycobacteria for use in therapy” (priority 2000, dated 2006).

Test system: M. tuberculosis complex

Cc1ncc([N+](=O)[O-])n1CCO [Metronidazole]
Activity on anaerobic grown M. tuberculosis complex: acts exclusively on anaerobic grown | Effect on growth of aerobic grown cultures: does not affect the growth
